# Measurements from US8357703B2, “Pyridines” (Hoffmann-La Roche Inc., priority 2009, dated 2013).
# Biological target: T1, human GABA A α5β3γ2 receptor (Homo sapiens, UniProt P18507+P31644)
# T1 construct: expressed in transfected cells; host or cells: HEK293 (transiently transfected), membranes
# Assay: [3H]flumazenil competition binding to HEK293 cells expressing human GABA A receptors
# Details: competition for [3H]flumazenil (0.5 nM for α5); HEK293 cells expressing human (transiently transfected) receptors; means of two determinations; read-out: hKi GABA Aα5
# Procedure: The affinity of compounds at GABA A receptor subtypes was measured by competition for [^3H]flumazenil (85 Ci/mmol; Roche) binding to HEK293 cells expressing rat (stably transfected) or human (transiently transfected) receptors of composition α1β3γ2, α2β3γ2, α3β3γ2 and α5β3γ2.
# Cell pellets were suspended in Krebs-tris buffer (4.8 mM KCl, 1.2 mM CaCl2, 1.2 mM MgCl2, 120 mM NaCl, 15 mM Tris; pH 7.5; binding assay buffer), homogenized by polytron for ca. 20 sec on ice and centrifuged for 60 min at 4° C. (50000 g; Sorvall, rotor: SM24=20000 rpm). The cell pellets were resuspended in Krebs-tris buffer and homogenized by polytron for ca. 15 sec on ice. Protein was measured (Bradford method, Bio-Rad) and aliquots of 1 mL were prepared and stored at −80° C.
# Radioligand binding assays were carried out in a volume of […] (96-well plates) which contained […] of cell membranes, [^3H]flumazenil at a concentration of 1 nM for α1, α2, α3 subunits and 0.5 nM for α5 subunits and the test compound in the range of […]. Nonspecific binding was defined by 10^−5 M diazepam and typically represented less than 5% of the total binding. Assays were incubated to equilibrium for 1 hour at 4° C. and harvested onto GF/C uni-filters (Packard) by filtration using a Packard harvester and washing with ice-cold wash buffer (50 mM Tris; pH 7.5). After drying, filter-retained radioactivity was detected by liquid scintillation counting. Ki values were calculated using Excel-Fit (Microsoft) and are the means of two determinations.
# Representative test results, obtained by the above described assay measuring binding affinity to HEK293 cells expressing human (h) receptors, are shown in table 1 below.
row,Ki,SMILES
1,3.1 nM,"CCCCc1noc(C)c1COc1ccc(C(=O)NC(C)CO)cn1 (racemic) [Example 9, Rac-6-((3-Butyl-5-methyl-isoxazol-4-yl)methoxy)-N-(2-hydroxy-1-methyl-ethyl)-nicotinamide]"
2,7.3 nM,"CCCCc1noc(C)c1COc1ccc(C(=O)NC(C)CO)cn1 (single isomer, unassigned; (+)) [Example 11, (+)-6-((3-Butyl-5-methyl-isoxazol-4-yl)methoxy)-N-(2-hydroxy-1-methyl-ethyl)-nicotinamide]"
3,46 nM,"CCCc1noc(C)c1COc1ccc(C(=O)NC(C)C)cn1 [Example 1, N-Isopropyl-6-((5-methyl-3-propyl-isoxazol-4-yl)methoxy)-nicotinamide]"
4,50.8 nM,"CCCc1noc(C)c1COc1ccc(C(=O)NC2CCOCC2)cn1 [Example 2, 6-((5-Methyl-3-propyl-isoxazol-4-yl)methoxy)-N-(tetrahydro-pyran-4-yl)-nicotinamide]"
5,49 nM,"Cc1onc(CCC(F)(F)F)c1COc1ccc(C(=O)NC(C)C)cn1 [Example 3, N-Isopropyl-6-[(5-methyl-3-(3,3,3-trifluoro-propyl)-isoxazol-4-yl)methoxy]-nicotinamide]"
6,39.9 nM,"Cc1onc(CCC(F)(F)F)c1COc1ccc(C(=O)NC2CCOCC2)cn1 [Example 4, 6-[(5-Methyl-3-(3,3,3-trifluoro-propyl)-isoxazol-4-yl)methoxy]-N-(tetrahydro-pyran-4-yl)-nicotinamide]"
7,4.1 nM,"CCCCc1noc(C)c1COc1ccc(C(=O)NC(C)C)cn1 [Example 5, 6-((3-Butyl-5-methyl-isoxazol-4-yl)methoxy)-N-isopropyl-nicotinamide]"
8,6.5 nM,"CCCCc1noc(C)c1COc1ccc(C(=O)NC2CC2)cn1 [Example 6, 6-((3-Butyl-5-methyl-isoxazol-4-yl)methoxy)-N-cyclopropyl-nicotinamide]"
9,5.2 nM,"CCCCc1noc(C)c1COc1ccc(C(=O)NC2CCOCC2)cn1 [Example 7, 6-((3-Butyl-5-methyl-isoxazol-4-yl)methoxy)-N-(tetrahydro-pyran-4-yl)-nicotinamide]"
10,15.2 nM,"CCCCc1noc(C)c1COc1ccc(C(=O)NC(C)(C)CO)cn1 [Example 8, 6-((3-Butyl-5-methyl-isoxazol-4-yl)methoxy)-N-(2-hydroxy-1,1-dimethyl-ethyl)-nicotinamide]"
11,5.7 nM,"CCCCc1noc(C)c1COc1ccc(C(=O)NCCO)cn1 [Example 10, 6-((3-Butyl-5-methyl-isoxazol-4-yl)methoxy)-N-(2-hydroxy-ethyl)-nicotinamide]"
12,3.8 nM,"CCCCc1noc(C)c1COc1ccc(C(=O)N[C@@H](C)CO)cn1 [Example 12, (−)-6-((3-Butyl-5-methyl-isoxazol-4-yl)methoxy)-N-(2-hydroxy-1-methyl-ethyl)-nicotinamide]"
13,9.2 nM,"CCCCc1noc(C)c1COc1ccc(C(=O)NCC(C)(C)O)cn1 [Example 13, 6-((3-Butyl-5-methyl-isoxazol-4-yl)methoxy)-N-(2-hydroxy-2-methyl-propyl)-nicotinamide]"
14,5 nM,"CCCCc1noc(C)c1COc1ccc(C(=O)NC2CCOC2)cn1 (centres unmarked) [Example 14, 6-((3-Butyl-5-methyl-isoxazol-4-yl)methoxy)-N-(tetrahydro-furan-3-yl)-nicotinamide]"
15,5.7 nM,"CCCCc1noc(C)c1COc1ccc(C(=O)NC(CO)CO)cn1 [Example 15, 6-((3-Butyl-5-methyl-isoxazol-4-yl)methoxy)-N-(2-hydroxy-1-hydroxymethyl-ethyl)-nicotinamide]"
16,6.5 nM,"CCCCc1noc(C)c1COc1ccc(C(=O)N[C@H]2CCOC2)cn1 [Example 16, 6-((3-Butyl-5-methyl-isoxazol-4-yl)methoxy)-N-(S)-tetrahydro-furan-3-yl-nicotinamide]"
17,5.2 nM,"CCCCc1noc(C)c1COc1ccc(C(=O)NCC(C)O)cn1 (centres unmarked) [Example 17, 6-((3-Butyl-5-methyl-isoxazol-4-yl)methoxy)-N-(2-hydroxy-propyl)-nicotinamide]"
18,21.1 nM,"CCCCc1noc(C)c1COc1ccc(C(=O)N2CCS(=O)(=O)CC2)cn1 [Example 18, [6-((3-Butyl-5-methyl-isoxazol-4-yl)methoxy)-pyridin-3-yl]-(1,1-dioxo-1,6-thiomorpholin-4-yl)-methanone]"
19,8.4 nM,"CCCCc1noc(C)c1COc1ccc(C(=O)N[C@@H](C)C(F)(F)F)cn1 [Example 19, 6-((3-Butyl-5-methyl-isoxazol-4-yl)methoxy)-N—((S)-2,2,2-trifluoro-1-methyl-ethyl)-nicotinamide]"

row,Ki,SMILES
1,7.5 nM,"CCCCc1noc(C)c1COc1ccc(C(=O)N[C@@H](C)C(F)(F)F)cn1 [Example 20, 6-((3-Butyl-5-methyl-isoxazol-4-yl)methoxy)-N—((S)-2,2,2-trifluoro-1-methyl-ethyl)-nicotinamide]"
2,11.5 nM,"CCCCc1noc(C)c1COc1ccc(C(=O)NC2(C)CC2)cn1 [Example 21, 6-((3-Butyl-5-methyl-isoxazol-4-yl)methoxy)-N-(1-methyl-cyclopropyl)-nicotinamide]"
3,34.5 nM,"CCCCc1noc(C)c1COc1ccc(C(=O)N2CCC2)cn1 [Example 22, Azetidin-1-yl-[6-((3-butyl-5-methyl-isoxazol-4-yl)methoxy)-pyridin-3-yl]-methanone]"
4,2.2 nM,"CCCCc1noc(C)c1COc1ccc(C(=O)Nc2cnn(C)c2)cn1 [Example 23, 6-((3-Butyl-5-methyl-isoxazol-4-yl)methoxy)-N-(1-methyl-1H-pyrazol-4-yl)-nicotinamide]"
5,10.7 nM,"CCCCc1noc(C)c1COc1ccc(C(=O)Nc2ccn(C)n2)cn1 [Example 24, 6-((3-Butyl-5-methyl-isoxazol-4-yl)methoxy)-N-(1-methyl-1H-pyrazol-3-yl)-nicotinamide]"
6,41.1 nM,"CCCCc1nocc1COc1ccc(C(=O)NC(C)C)cn1 [Example 25, 6-((3-Butyl-isoxazol-4-yl)methoxy)-N-isopropyl-nicotinamide]"
7,44.9 nM,"CCCCc1nocc1COc1ccc(C(=O)NCC(F)(F)F)cn1 [Example 26, 6-((3-Butyl-isoxazol-4-yl)methoxy)-N-(2,2,2-trifluoro-ethyl)-nicotinamide]"
8,51.9 nM,"CCCCc1nocc1COc1ccc(C(=O)NC2CCOCC2)cn1 [Example 27, 6-((3-Butyl-isoxazol-4-yl)methoxy)-N-(tetrahydro-pyran-4-yl)-nicotinamide]"
9,36.1 nM,"CCCCc1nocc1COc1ccc(C(=O)N[C@@H](C)CO)cn1 [Example 28, 6-((3-Butyl-isoxazol-4-yl)methoxy)-N—((S)-2-hydroxy-1-methyl-ethyl)-nicotinamide]"
10,70.9 nM,"CCCC(C)c1noc(C)c1COc1ccc(C(=O)NC(C)C)cn1 (centres unmarked) [Example 29, N-Isopropyl-6-[(5-methyl-3-(1-methyl-butyl)-isoxazol-4-yl)methoxyl]-nicotinamide]"
11,37.6 nM,"Cc1onc(C2CCCC2)c1COc1ccc(C(=O)NC(C)C)cn1 [Example 30, 6-((3-Cyclopentyl-5-methyl-isoxazol-4-yl)methoxy)-N-isopropyl-nicotinamide]"
12,4.3 nM,"Cc1onc(C2CCCCC2)c1COc1ccc(C(=O)NC(C)C)cn1 [Example 31, 6-((3-Cyclohexyl-5-methyl-isoxazol-4-yl)methoxy)-N-isopropyl-nicotinamide]"
13,4.7 nM,"Cc1onc(C2CCCCC2)c1COc1ccc(C(=O)NC2CC2)cn1 [Example 32, 6-((3-Cyclohexyl-5-methyl-isoxazol-4-yl)methoxy)-N-cyclopropyl-nicotinamide]"
14,5.2 nM,"Cc1onc(C2CCCCC2)c1COc1ccc(C(=O)NC2CCOCC2)cn1 [Example 33, 6-((3-Cyclohexyl-5-methyl-isoxazol-4-yl)methoxy)-N-(tetrahydro-pyran-4-yl)-nicotinamide]"
15,5.8 nM,"Cc1onc(C2CCCCC2)c1COc1ccc(C(=O)NCCO)cn1 [Example 34, 6-((3-Cyclohexyl-5-methyl-isoxazol-4-yl)methoxy)-N-(2-hydroxy-ethyl)-nicotinamide]"
16,20.3 nM,"Cc1onc(C2CCCCC2)c1COc1ccc(C(=O)NC(C)(C)CO)cn1 [Example 35, 6-((3-Cyclohexyl-5-methyl-isoxazol-4-yl)methoxy)-N-(2-hydroxy-1,1-dimethyl-ethyl)-nicotinamide]"
17,3.7 nM,"Cc1onc(C2CCCCC2)c1COc1ccc(C(=O)NC(C)CO)cn1 (centres unmarked) [Example 36, 6-((3-Cyclohexyl-5-methyl-isoxazol-4-yl)methoxy)-N-(2-hydroxy-1-methyl-ethyl)-nicotinamide]"
18,21.9 nM,"Cc1onc(C2CCOCC2)c1COc1ccc(C(=O)NC(C)C)cn1 [Example 37, N-Isopropyl-6-[(5-methyl-3-(tetrahydro-pyran-4-yl)-isoxazol-4-yl)methoxy]-nicotinamide]"
19,41.6 nM,"Cc1onc(C2CCOCC2)c1COc1ccc(C(=O)N[C@@H](C)CO)cn1 [Example 38, N—((S)-2-Hydroxy-1-methyl-ethyl)-6-[(5-methyl-3-(tetrahydro-pyran-4-yl)-isoxazol-4-yl)methoxy]-nicotinamide]"
